US5348956A, “Substituted cyclopropylamino-1,3,5-triazines” (UCB S.A., priority 1991, dated 1994)
Where a name gives a salt, the structure may show the parent alone. Read-outs that look alike come from different tables or passages of the source.

Key:
serotonergic activity = assay: "wet dog shake" (WDS) behavior, serotonergic activity; type: in vivo, male Sprague-Dawley rats
Procedure: A decrease in serotonergic activity has been correlated with the occurrence of affective disorders, such as depression and anxiety. […] The test is carried out in the morning on male Sprague-Dawley rats (±180 g), divided the previous day into groups of 8 animals in residence cages. The cage used for the tests is a transparent enclosure of 12×24×30 cm in height, the floor of which is covered with a layer of sand. The compounds to be tested, dissolved either in physiological salt solution or in a citrate buffer of pH 5, are administered intraperitoneally in a different dose for each group treated. The control groups receive an intraperitoneal injection of the same vehicle (either physiological salt solution or citrate buffer). […] The mean values of the results are calculated and analyzed statistically by the Mann-Whitney method. The mean values of the number of shakes obtained for the compounds according to the invention administered intraperitoneally at the doses indicated (in mg/kg) are given in Table V below.

[1] = system: longitudinal muscles of the ileum contracted by histamine; assay: potentiation of the myorelaxing effect of isoprenaline on the ileum; type: cell-based, Dunkin-Hartley guinea-pigs; settings: with isoprenaline 10^-7 mole/l; histamine 3.2 μmoles/l
Procedure: (cf. R. A. TURNER, "Screening Methods in Pharmacology", Ed. Acad. Press, San Diego, 1965, chapter IV, pages 43-47). […] Inhibition cycle: When the successive contractions induced by the histamine injections have become reproducible, the compound to be tested is injected immediately after the second wash. The contraction induced by the following injection of histamine is measured and compared with the average of the three preceding contractions caused by the repeated injections of histamine (control contractions). From the result obtained, the percentage inhibition of the contraction is calculated. Several cycles of histamine injection are then performed again, until the contractions of the muscle become reproducible again; the muscle is then ready for testing of another compound. The potentiating effect of a compound is measured in the course of a so-called "potentiation" cycle, which comprises three successive inhibition cycles. […] In the course of the second inhibition cycle, the percentage inhibition of the contraction obtained with the compound to be tested, injected alone at a given dose, is determined. In the third inhibition cycle, isoprenaline and the compound to be tested are injected simultaneously, and the percentage inhibition of the contraction is calculated for the dose used of the compound tested. The same experiments are repeated for each of the doses of the compounds tested.

[2] = system: anaphylactic release of histamine, guinea-pig lung sections; assay: potentiation of the inhibition of anaphylactic histamine release by isoprenaline; type: cell-based, Dunkin-Hartley guinea-pigs; settings: with isoprenaline 10^-7 mole per liter
Procedure: (§1) Dunkin-Hartley guinea-pigs which are first passively sensitized by an intravenous injection of 1 ml of isologous antiovalbumin serum are used. Twenty-four hours after the injection, the lungs are then perfused with a Tyrode buffer to evacuate the blood, and then removed and cut into sections of 1 mm. These sections are divided up into test tubes (3 sections per tube) to give 10 experimental groups of lung sections per guinea-pig. A "positive" control group of lung sections is stimulated by addition of an ovalbumin solution (0.1 mg/ml) to induce the anaphylactic release of histamine and serves to determine the maximum amount of histamine (100%) which can be released. A "negative" control group which is not stimulated by ovalbumin serves to determine the naturally released amount of histamine (spontaneous release). In three other groups, the lung sections are incubated at 37° C. for 30 minutes in the ovalbumin solution in the presence of three different doses of the compound to be tested (one dose per group). […] At this dose, isoprenaline inhibits the release of histamine by 30 to 40%, which is verified on a control group treated only with isoprenaline alone at this dose. In addition, a supplementary control group which is not stimulated by ovalbumin is used to detect a possible spontaneous release of histamine by the highest dose of the compound tested. In each group, the histamine released in the incubation medium is measured by spectrofluorometry (D. P. EVANS et al., Life Sci., 12, (1973), 327-336).

[3] = system: bronchospasm induced by histamine; assay: bronchospasmolytic activity (Konzett and Roessler), bronchospasm induced by histamine; type: in vivo, Dunkin-Hartley guinea-pig; settings: Cavia porcellus; intravenous; histamine-induced bronchospasm; read-out: Doses (ID50), Histamine
Procedure: (§2) This activity was measured in the Dunkin-Hartley guinea-pig by the method of H. KONZETT and […] (Naunyn Schmiedebergs Arch. exp. Path. […] The anesthetized (urethane) and curarized (gallamine) guinea-pig is placed under assisted respiration. The endotracheal pressure is recorded. […] The compound to be tested is also administered intravenously two minutes before the administration of the spasmogen and then in 3 to 4 cumulative doses in increasing amounts at intervals of 15 minutes. Six animals per compound to be tested and per spasmogen are used.

toxicity, Irwin's test = type: in vivo; settings: i.p.; death of two animals out of three within 48 hours
Procedure: Progressive doses of the compound to be tested are administered intraperitoneally to groups of three mice until the lethal dose is reached (dose which causes the death of two animals out of three within 48 hours).

[4] = system: anaphylactic release of histamine, guinea-pig lung sections; assay: inhibition of the anaphylactic release of histamine (proper effect); type: cell-based, Dunkin-Hartley guinea-pigs; settings: Cavia porcellus, in vitro, read-out: Minimum inhibitory dose (MID)
Procedure: as §1

[5] = system: plantar edema induced by immune complexes; assay: "reverse passive Arthus" (RPA) test, anti-inflammatory and anti-edema activity; type: in vivo, Sprague-Dawley rat; settings: Rattus norvegicus, intravenous
Procedure: The reaction between a soluble antigen and antibodies in the organism may lead to an acute inflammatory reaction accompanied by release of histamine, modification of vascular permeability and formation of a localized edema. […] To this end, the Arthus reaction is induced by subplantar administration of 0.1 ml of heterologous antivalbumin reaginic serum into the right hind paw and by simultaneous intravenous injection of 1 ml/kg ovalbumin (25 mg/ml). The compound to be tested is administered intravenously 30 seconds before induction of the Arthus reaction, in a least 3 different doses. A group of 6 rats is used per dose of compound to be tested. The volume of the paw is measured by plethysmometry before the Arthus reaction and 3 to 5 hours after induction of the Arthus reaction, both in the control animals and in the treated animals. The effect of a compound on the reduction in the edema for each dose and at each measurement time (3 hours and 5 hours) is expressed in % of the edema observed in the control animals. The doses of the compounds (ID30 in μmole/kg) which inhibit by 30%, on average over all the animals, the volume of the edema observed in the control animals are given in Table VII below.

[6] = system: bronchospasm induced by serotonin; assay: bronchospasmolytic activity (Konzett and Roessler), bronchospasm induced by serotonin; type: in vivo, Dunkin-Hartley guinea-pig; settings: Cavia porcellus; intravenous; serotonin-induced bronchospasm; read-out: Doses (ID50), Serotonin
Procedure: as §2

[7] = system: bronchospasm induced by acetylcholine; assay: bronchospasmolytic activity (Konzett and Roessler), bronchospasm induced by acetylcholine; type: in vivo, Dunkin-Hartley guinea-pig; settings: Cavia porcellus; intravenous; acetylcholine-induced bronchospasm; read-out: Doses (ID50), Acetylcholine
Procedure: as §2

[8] = 3 hours after induction of the Arthus reaction, read-out: Dose (ID30), 3 hours
[9] = 5 hours after induction of the Arthus reaction, read-out: Dose (ID30), 5 hours

Row | Compound | Minimum potentiating dose (MPD) [1] | Minimum potentiating dose (MPD) [2] | ED50 [3] | Lethal dose (toxicity, Irwin's test) | minimal effective concentration [4] | ED30 [5, 8] | ED30 [5, 9] | ED50 [6] | ED50 [7] | other results
1 | C1CN(c2nc(NC3CC3)nc(C3CC3)n2)CCS1 [Compound 18, 2-Cyclopropyl-4-cyclopropylamino-6-thiomorpholino-1,3,5-triazine] | 0.1 µmol/L | 1.0 µmol/L | 0.003 µmol/kg | 277 mg/kg | 0.1 µM | 1 µmol/kg | 1 µmol/kg | – | – | Average number of shakes (serotonergic activity; 0.88 mg/kg i.p., counted over 30 minutes): 10.6 ± 3.0 shakes
2 | O=S1(=O)CCN(c2nc(NC3CC3)nc(C3CCC3)n2)CC1 [Compound 26, 2-Cyclobutyl-4-cyclopropylamino-6-thiomorpholino-1,3,5-triazine S,S-dioxide hydrochloride] | – | 0.32 µmol/L | 0.03 µmol/kg | 201.5 mg/kg | 1 µM | – | – | – | – | Average number of shakes (serotonergic activity; 1.15 mg/kg i.p., counted over 30 minutes): 11.8 ± 4.3 shakes
3 | C1CN(c2nc(NC3CC3)nc(C3CC3)n2)CS1 [Compound 21, 2-Cyclopropyl-4-cyclopropylamino-6-(3-thiazolidinyl)-1,3,5-triazine] | – | 0.32 µmol/L | – | 263 mg/kg | 0.1 µM | – | – | – | – | Average number of shakes (serotonergic activity; 2.63 mg/kg i.p., counted over 30 minutes): 5.5 ± 2.0 shakes
4 | O=S1(=O)CCN(c2nc(NC3CC3)nc(C3CC3)n2)CC1 [Compound 20, 2-Cyclopropyl-4-cyclopropylamino-6-thiomorpholino-1,3,5-triazine S,S-dioxide] | 0.1 µmol/L | 0.32 µmol/L | 0.03 µmol/kg | 185 mg/kg | 1 µM | 1 µmol/kg | 0.5 µmol/kg | 0.4 µmol/kg | 0.1 µmol/kg | Average number of shakes (serotonergic activity; 0.99 mg/kg i.p., counted over 30 minutes): 13.6 ± 2.3 shakes
5 | O=S1(=O)CCN(c2nc(NC3CC3)nc(C3CC3)n2)C1 [Compound 22, 2-Cyclopropyl-4-cyclopropylamino-6-(3-thiazolidinyl)-1,3,5-triazine S,S-dioxide] | – | 0.032 µmol/L | – | 295 mg/kg | 0.1 µM | – | – | – | – | Average number of shakes (serotonergic activity; 0.95 mg/kg i.p., counted over 30 minutes): 8.1 ± 1.7 shakes
6 | N[C@@H](Cc1c[nH]c2ccc(O)cc12)C(=O)O [5-HTP/carbidopa, 5-hydroxytryptophan, reference compound] | – | – | – | – | – | – | – | – | – | Average number of shakes (serotonergic activity; 5-HTP 100.0 mg/kg i.p. after carbidopa 25 mg/kg i.p., measured 90 to 120 minutes after 5HTP): 4.7 ± 1.5 shakes; Average number of shakes (serotonergic activity; 5-HTP 200.0 mg/kg i.p. after carbidopa 25 mg/kg i.p., measured 90 to 120 minutes after 5HTP): 19.6 ± 3.0 shakes
7 | CC1CC1c1nc(NC2CC2)nc(N2CCOCC2)n1.Cl (centres unmarked) [Compound 25, 2-Cyclopropylamino-4-(2-methylcyclopropyl)-6-morpholino-1,3,5-triazine hydrochloride] | – | 0.032 µmol/L | – | 99.7 mg/kg | 0.032 µM | – | – | – | – | Average number of shakes (serotonergic activity; 1.0 mg/kg i.p., counted over 30 minutes): 19.6 ± 5.0 shakes
8 | [O-][S+]1CCN(c2nc(NC3CC3)nc(C3CC3)n2)C1 (centres unmarked) [Compound 23, 2-Cyclopropyl-4-cyclopropylamino-6-(3-thiazolidinyl)-1,3,5-triazine S-oxide] | – | – | – | 156 mg/kg | – | – | – | – | – | –
9 | C1CCC(c2nc(NC3CC3)nc(N3CCOCC3)n2)C1 [Compound 8] | – | 10.0 µmol/L | 0.1 µmol/kg | 326 mg/kg | 1 µM | 4 µmol/kg | 4 µmol/kg | 0.3 µmol/kg | 0.2 µmol/kg | –
10 | O=C1CN(c2nc(NC3CC3)nc(C3CC3)n2)C1 [Compound 17] | 0.32 µmol/L | 1.0 µmol/L | 0.1 µmol/kg | 281.5 mg/kg | 3.2 µM | 1 µmol/kg | 1 µmol/kg | 0.2 µmol/kg | 0.2 µmol/kg | Average number of shakes (serotonergic activity; 2.8 mg/kg i.p., counted over 30 minutes): 10.5 ± 2.9 shakes
11 | [O-][S+]1CCN(c2nc(NC3CC3)nc(C3CC3)n2)CC1 [Compound 19, 2-Cyclopropyl-4-cyclopropylamino-6-thiomorpholino-1,3,5-triazine S-oxide] | 0.32 µmol/L | 0.1 µmol/L | 0.02 µmol/kg | 175.6 mg/kg | 1 µM | 0.02 µmol/kg | 0.02 µmol/kg | 0.04 µmol/kg | 0.1 µmol/kg | Average number of shakes (serotonergic activity; 0.94 mg/kg i.p., counted over 30 minutes): 16.0 ± 4.7 shakes
12 | CC1(c2nc(NC3CC3)nc(N3CCOCC3)n2)CC1 [Compound 24, 2-Cyclopropylamino-4-(1-methylcyclopropyl)-6-morpholino-1,3,5-triazine] | – | 0.32 µmol/L | 0.04 µmol/kg | 825 mg/kg | 0.032 µM | – | – | – | – | Average number of shakes (serotonergic activity; 2.75 mg/kg i.p., counted over 30 minutes): 6.1 ± 2.3 shakes
